In ChEMBL document CHEMBL1201862, “PubChem BioAssay data set” (2004):
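Step 1: Grow cells in 96-well plates. Step 2: Expose to compound for 48 hours at 5 concentrations. Step 3: Interpolate endpoints linearly; if unreached, use highest concentration. At the GI50, growth is halved.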 The source made the active and inactive calls. No stated cut-off is given here; in the data, active = GI50 up to about 1.1 µM and inactive = higher.

Columns and labels:
Experiment in all cases: NCI anticancer screen, dose series, 48 h
KM12 = test system: KM12
A549 = test system: A549
OVCAR-3 = test system: OVCAR-3
HT-29 = test system: HT-29
SK-MEL-2 = test system: SK-MEL-2
SK-MEL-28 = test system: SK-MEL-28
Malme-3M = test system: Malme-3M
RPMI-8226 = test system: RPMI-8226
MDA-MB-231 = test system: MDA-MB-231
SK-MEL-5 = test system: SK-MEL-5
CCRF-CEM = test system: CCRF-CEM
M14 = test system: M14
SF-539 = test system: SF-539
DU-145 = test system: DU-145
UACC-62 = test system: UACC-62
IGROV-1 = test system: IGROV-1
MCF7 = test system: MCF7
HCC 2998 = test system: HCC 2998
SF-295 = test system: SF-295
A498 = test system: A498

Measured: GI50

Cc1ccc(C2=Nc3cccc4cccc(c34)N2)cc1
inactive: KM12 > 100 µM | A549 > 100 µM | OVCAR-3 > 100 µM | HT-29 > 100 µM | SK-MEL-2 > 100 µM | SK-MEL-28 > 100 µM | Malme-3M > 100 µM | RPMI-8226 > 100 µM | MDA-MB-231 > 100 µM | SK-MEL-5 > 100 µM | CCRF-CEM > 100 µM | M14 > 100 µM | SF-539 > 100 µM | DU-145 > 100 µM | UACC-62 > 100 µM | IGROV-1 > 100 µM | MCF7 > 100 µM | HCC 2998 > 100 µM | SF-295 > 100 µM

COc1c(O)cc(O)c2c(=O)cc(-c3ccccc3)oc12 [WOGONIN]
inactive: KM12 34 µM | A549 42.9 µM | OVCAR-3 24.5 µM | HT-29 51.9 µM | SK-MEL-2 43.7 µM | SK-MEL-28 > 100 µM | Malme-3M 85.3 µM | RPMI-8226 17.5 µM | MDA-MB-231 > 100 µM | SK-MEL-5 34.2 µM | CCRF-CEM 27 µM | M14 69 µM | SF-539 42.5 µM | DU-145 23.6 µM | UACC-62 35.1 µM | IGROV-1 29.4 µM | MCF7 35.6 µM | HCC 2998 35.2 µM | SF-295 34.5 µM

COc1cc2c(cc1OCCCCCCCCN1C(=O)c3cccc4cccc(c34)C1=O)N=C[C@@H]1CCCN1C2=O
inactive: KM12 16.3 µM | A549 20 µM | OVCAR-3 11.1 µM | HT-29 15.7 µM | SK-MEL-2 14.6 µM | SK-MEL-28 17.9 µM | Malme-3M 21 µM | RPMI-8226 2.96 µM | MDA-MB-231 8.63 µM | SK-MEL-5 12.7 µM | CCRF-CEM 2.82 µM | M14 37.3 µM | SF-539 3.45 µM | DU-145 50.2 µM | UACC-62 13.5 µM | IGROV-1 3.11 µM | MCF7 3.71 µM | HCC 2998 14.2 µM | SF-295 15.6 µM

C/C(=N\NS(=O)(=O)c1ccc(C)cc1)P(=O)(O)O
inactive: KM12 > 100 µM | A498 > 100 µM | A549 > 100 µM | OVCAR-3 > 100 µM | HT-29 > 100 µM | SK-MEL-2 > 100 µM | SK-MEL-28 > 100 µM | Malme-3M > 100 µM | RPMI-8226 > 100 µM | MDA-MB-231 > 100 µM | SK-MEL-5 > 100 µM | M14 > 100 µM | SF-539 > 100 µM | DU-145 > 100 µM | UACC-62 > 100 µM | IGROV-1 > 100 µM | MCF7 > 100 µM | SF-295 > 100 µM

NCCSc1nc2ccccc2s1
inactive: KM12 45.1 µM | A498 32.9 µM | A549 48.3 µM | OVCAR-3 38.6 µM | HT-29 34 µM | SK-MEL-2 26.1 µM | SK-MEL-28 > 100 µM | Malme-3M 50.8 µM | RPMI-8226 31.9 µM | MDA-MB-231 40 µM | SK-MEL-5 52.7 µM | CCRF-CEM 26.3 µM | M14 33.7 µM | SF-539 17.3 µM | DU-145 33.9 µM | UACC-62 31.3 µM | IGROV-1 41.5 µM | MCF7 28.8 µM | SF-295 23.4 µM

C[N+](C)(CCNC(=O)c1cccc2cc3ccccc3nc12)Cc1ccc([N+](=O)[O-])s1
inactive: KM12 > 25 µM | A498 > 25 µM | A549 > 25 µM | OVCAR-3 > 25 µM | HT-29 > 25 µM | SK-MEL-2 > 25 µM | SK-MEL-28 > 25 µM | Malme-3M > 25 µM | RPMI-8226 > 25 µM | MDA-MB-231 > 25 µM | SK-MEL-5 > 25 µM | CCRF-CEM > 25 µM | M14 > 25 µM | DU-145 > 25 µM | UACC-62 > 25 µM | IGROV-1 > 25 µM | MCF7 > 25 µM | SF-295 > 25 µM

OCC(O)C(O)C(O)C(/C=N\Nc1ncnc2ccc(Br)cc12)=N/Nc1ncnc2ccc(Br)cc12 (stereo unspecified)
inactive: KM12 17.2 µM | A498 50.5 µM | A549 23.2 µM | OVCAR-3 2.72 µM | HT-29 4.44 µM | SK-MEL-2 3.33 µM | SK-MEL-28 45.9 µM | Malme-3M 3.53 µM | RPMI-8226 > 100 µM | MDA-MB-231 2.87 µM | SK-MEL-5 3.37 µM | M14 9.48 µM | SF-539 8.3 µM | DU-145 5.65 µM | IGROV-1 4.09 µM | MCF7 34.4 µM | SF-295 23 µM

COc1ccc(NC(C)=O)c(C(=O)CCNC(C)=O)c1
inactive: KM12 > 100 µM | A498 > 100 µM | A549 > 100 µM | OVCAR-3 > 100 µM | HT-29 > 100 µM | SK-MEL-2 > 100 µM | RPMI-8226 > 100 µM | MDA-MB-231 > 100 µM | SK-MEL-5 > 100 µM | CCRF-CEM > 100 µM | M14 > 100 µM | SF-539 > 100 µM | DU-145 > 100 µM | UACC-62 > 100 µM | IGROV-1 > 100 µM | MCF7 > 100 µM | SF-295 > 100 µM

C/C=C1\CC(C(=O)OCC)CCCCCCC1=O (stereo unspecified)
inactive: KM12 > 100 µM | A498 > 100 µM | A549 > 100 µM | HT-29 > 100 µM | SK-MEL-2 > 100 µM | SK-MEL-28 > 100 µM | Malme-3M > 100 µM | MDA-MB-231 > 100 µM | SK-MEL-5 > 100 µM | CCRF-CEM 19.1 µM | M14 > 100 µM | SF-539 > 100 µM | DU-145 > 100 µM | UACC-62 59.2 µM | IGROV-1 > 100 µM | MCF7 > 100 µM | SF-295 > 100 µM

COc1ccccc1CNCCCCCNCCCCCCCCCCNCCCCCNCc1ccccc1OC
inactive: KM12 4.54 µM | A549 23.4 µM | OVCAR-3 47 µM | HT-29 96.6 µM | SK-MEL-2 18.4 µM | SK-MEL-28 79.1 µM | Malme-3M 24.8 µM | RPMI-8226 36.7 µM | MDA-MB-231 16.2 µM | SK-MEL-5 34.1 µM | CCRF-CEM 13 µM | M14 73.6 µM | SF-539 8.65 µM | DU-145 18 µM | UACC-62 36.6 µM | IGROV-1 18.8 µM | MCF7 18 µM | HCC 2998 22.4 µM | SF-295 24.7 µM

O=C(c1ccccc1)C1C[C@H]2CO[C@H](c3ccccc3)N2C1=O (stereo partly specified)
inactive: KM12 > 100 µM | A549 > 100 µM | OVCAR-3 > 100 µM | HT-29 > 100 µM | SK-MEL-2 > 100 µM | SK-MEL-28 > 100 µM | Malme-3M > 100 µM | RPMI-8226 > 100 µM | MDA-MB-231 > 100 µM | SK-MEL-5 > 100 µM | CCRF-CEM 99.3 µM | M14 > 100 µM | SF-539 > 100 µM | DU-145 > 100 µM | UACC-62 > 100 µM | IGROV-1 > 100 µM | MCF7 > 100 µM | HCC 2998 > 100 µM | SF-295 > 100 µM
